The text below walks through data of patent publication US20260076988A1 (The Cleveland Clinic Foundation, priority 2019, published 2026).

Data set [1] concerns Dck, Uck2, Cda and Cad. Kind of data set: F1339 cells: pyrimidine metabolism enzyme expression by QRT-PCR and Western blot. Format: cell-based, murine. The protocol:
FIG. 2. […] F1339 p53-null cancer cells were seeded at D0 and treated with DMSO, deoxycytidine (DC, 0.5 μM), cytidine (CY, 5 μM), Dec (0.5 μM) and 5Aza (5 μM). […] Cell counts by automated counter, mean±SD. […] Gene expression by Q-PCR, median±interquartile range (IQR) (3 biological replicates), *p<0.05, **p<0.01. 2-sided Mann-Whitney test. […] Western blot.
RNA was extracted using Trizol reagent (Invitrogen) before the generation of complementary DNA using the iScript™ cDNA Synthesis Kit (Bio-rad). Quantitative PCR was run on StepOnePlus Real-Time PCR System (Applied Biosystems), using comparative Ct value method to quantify the expression of target genes in different samples. Gene expression was normalized to the housekeeping gene β-actin.
Tumor cells were lysed with RIPA lysis buffer and protein concentrations determined by BCA protein assay kit (Thermo Fisher Scientific). Samples with equal quantity (40 μg) of total protein were mixed with 4× loading buffer and 10× sample reducing reagent (Thermo Fisher Scientific), subjected to electrophoresis on a 12% (v/v) SDS-polyacrylamide gel, then transferred onto polyvinylidene fluoride membranes. After blocking with 5% dried skimmed milk, the membranes were washed three times and incubated with primary antibodies at 4° C. overnight. After washing, the membranes were further incubated with corresponding horseradish peroxidase-conjugated secondary antibodies. The membranes were then treated with Pierce™ ECL substrates (Thermo Scientific) then visualized using X-ray film.
On the technique in general: In western blotting, separated proteins are transferred to a membrane and probed.

Data set [2] concerns LL3 lung cancer cells. Description: Syngeneic disseminated lung cancer model (LL3, tail vein). Conditions: treatment from day 21; Dec 0.2, THU-Dec 10/0.1, 5Aza 2, THU-5Aza 10/1 mg/kg sc 3×/wk. Format: in vivo, C57BL/6 mice.
Excerpt: (§1) 2-sided Mann-Whitney test.
as §1, §1

For data set [3], the system named is AML cells (MOLM13, OCI-AML3, THP1). Kind of data set: AML cell proliferation after a single dose. Format: cell-based. Particulars: decitabine, deoxycytidine 0.5 μM, 5-azacytidine, cytidine 5 μM. As to the method:
A) Experiment schema. Vehicle, natural deoxycytidine (dC) 0.5 uM, natural cytidine (C) 5 uM, Dec 0.5 uM, or 5Aza 5 uM were added once to AML cells at 0 hours. B) Cell counts. By automated counter. Means±SD for 3 independent biological replicates for each cell line. C) Dec and 5Aza have opposite effects on dCTP levels. Measured by LCMS/MS 24 hrs after addition of Dec or 5Aza. Analyses of 2 or more independent nucleotide extractions from 3 different AML cells lines. Means±SD; p-values paired t-test, 1-sided. D) Gene expression 72 hours after Dec or 5Aza. Gene expression by QRT-PCR, relative to average expression in vehicle-treated controls. Means±SD for 3 independent biological replicates in each of 3 AML cell lines; p-values unpaired t-test vs vehicle, 2-sided. E) Western blot 72 hours after Dec or 5Aza. AML cells THP1, OCI-AML3 and K562. Western blots were reproduced in three independent biological replicates.

The subject of data set [4] is parental HAP1 leukemia cells. Kind of data set: Growth inhibition of parental HAP1 leukemia cells. Format: cell-based. Conditions: Homo sapiens, HAP1; parental cells; read-out: GI50 (concentration for 50% growth inhibition). An excerpt:
(§2) A) DCK and UCK2 knockout (KO) were confirmed by Western blot. HAP1 leukemia cells, KO by CRISPR-Cas9. B) DCK-KO lowers dCTP and UCK2-KO lowers dTTP. Analysis of independent nucleotide extractions. Means±SD; p-values unpaired t-test, 2-sided. C) Sensitivity of Wildtype, DCK-KO and UCK2-KO HAP1 leukemia cells to Dec vs 5Aza. Means±SD of 3 independent biological replicates.
(§3) Study approvals. Bone marrow samples for research were obtained from patients with AML (Acute myeloid leukemia) with written informed consent on a study protocol approved by the Cleveland Clinic Institutional Review Board (Cleveland, Ohio). Murine experiments were approved by the Cleveland Clinic Institutional Animal Care and Use Committee (Cleveland, Ohio). Sources of cell lines and animals. […] DNMT1 Immuno-detection and quantitation: Immunohistochemistry (IHC) was performed on decalcified and formalin-fixed paraffin embedded bone marrow biopsy sections (4 μm) and on positive and negative controls (parental and DNMT1-KO HCT116 cells). […] Nuclei positive for DNMT1 were identified and quantified in high resolution, large field-of-view images per ImageIQ algorithms (Image IQ Inc., Cleveland, OH) after segmentation of images and subtraction of bone as has been previously described^4.

Data set [5] relates to DCK-knockout HAP1 leukemia cells. Kind of data set: Growth inhibition of DCK-knockout HAP1 leukemia cells. Format: cell-based. Particulars: Homo sapiens, HAP1; DCK-knockout cells; read-out: GI50 (concentration for 50% growth inhibition).
Excerpt: as §2, §3

For data set [6], the system named is UCK2-knockout HAP1 leukemia cells. Kind of data set: Growth inhibition of UCK2-knockout HAP1 leukemia cells. It counts as cell-based. Particulars: Homo sapiens, HAP1; UCK2-knockout cells; read-out: GI50 (concentration for 50% growth inhibition).
Excerpt: as §2, §3

For data set [7] the following is noted: in vivo; cited from earlier work.
The test system of data set [8] is DCK. Particulars: leukemia cells, within 48 hours; cited from earlier work.

Turning to `Nc1ncn([C@@H]2O[C@H](CO)[C@@H](O)[C@H]2O)c(=O)n1` [5-azacytidine], the “expression of Dck, Uck2, Cda and Cad” value in data set [1] (decitabine 0.5 μM, 5-azacytidine 5 μM) is “increased Dck, Cda and Cad expression several-fold”. Besides, in data set [1] (lung cancer cells), the CAD upregulation is around 2 fold. In addition, the DCK upregulation in data set [1] (lung cancer cells) was around 3 fold; in data set [8], around 30%. Also, in data set [2], the “increase of time-to-distress over vehicle” value was “about 20 days”. The AML cell proliferation entry in data set [3] is “significantly decreased AML cell proliferation”. For the same compound, the GI50 is 4 µM in data set [4], 2 µM in data set [5] and 15 µM in data set [6]. Also, the “in vivo plasma half-life” value in data set [7] was around 15 min.
